From patent US20090181948A1, “DIAMINE DERIVATIVE” (KYOWA HAKKO KOGYO CO., LTD., priority 2005, published 2009)

Target: T1, histamine H3 receptor (Rattus norvegicus, UniProt Q9QYN8)
T1 construct: from tissue; host or cells: rat striatum (Sprague-Dawley, male, 6 weeks), membrane homogenate
Test: Histamine H3 receptor binding assay ([3H]-Nα-methylhistamine binding to rat striatum homogenate)
Conditions: 1 μmol/L test compound; [3H]-Nα-methylhistamine 1 nmol/L; striata of Sprague-Dawley male rats, 25° C., 1 hour; read-out: Inhibition ratio of [3H]-Nα-methylhistamine binding
Experimental: To the striata of Sprague-Dawley male rats (6 weeks of age), a 10-fold volume of lysis buffer {50 mmol/L [[…] (Tris)]/HCl (pH 7.4), 5 mmol/L ethylenediaminetetraacetic acid (EDTA), a protease inhibitor mixture [1 mg/mL phenylmethylsulfonyl fluoride (PMSF), 1 μg/mL pepstatin A, 1 μg/mL leupeptin, 1 μg/mL chymostatin]} was added and the striata were homogenized. The resulting homogenate was centrifuged (30,000×g, 4° C., 30 min), and the obtained precipitate was resuspended in a 10-fold volume of lysis buffer, followed by centrifugation under the same condition. To the obtained precipitate, a 3-fold volume of lysis buffer was added to suspend the precipitate, and the resulting tissue homogenate was used for a test.
A test compound was dissolved in an assay buffer [50 mmol/L Tris/HCl (pH 7.4), 5 mmol/L EDTA], and [^3H]-N^α-methylhistamine (1 nmol/L) and the tissue homogenate (20 μg, in terms of protein amount) were added thereto, and then, the mixture was incubated at 25° C. for 1 hour. Then, the reaction was terminated by rapid suction filtration on a glass filter [GF/B: Whatman, previously soaked in 0.3 w/v % polyethylenimine for about 30 min]. Then, the glass filter was washed three times with 3 mL of assay buffer. This glass filter was transferred into a scintillation vial and dried at 60° C. for 30 minutes. Then, 0.5 mL of Ultimagold (Perkin Elmer) was added thereto, and the radioactivity (binding amount of [^3H]-N^α-methylhistamine) was measured using a liquid scintillation counter. The obtained value was used as a binding amount in the presence of the test compound. The same procedure as described above was carried out in the absence of the test compound, and the binding amount of [^3H]-N^α-methylhistamine obtained at this time was used as a binding amount in the absence of the test compound. Further, the binding amount of [^3H]-N^α-methylhistamine obtained in the presence of 10 μmol/L thioperamide was used as a non-specific binding amount. An inhibitory action of [^3H]-N^α-methylhistamine binding was represented by an inhibition ratio in terms of 1 μmol/L of the test compound calculated by the following Equation (1).
Inhibition ratio(%)={1−[(Binding amount in the presence of test compound)−(Non-specific binding amount)]/[(Binding amount in the absence of test compound)−(Non-specific binding amount)]}×100 (1)

T1 sequence (Q9QYN8 whole entry): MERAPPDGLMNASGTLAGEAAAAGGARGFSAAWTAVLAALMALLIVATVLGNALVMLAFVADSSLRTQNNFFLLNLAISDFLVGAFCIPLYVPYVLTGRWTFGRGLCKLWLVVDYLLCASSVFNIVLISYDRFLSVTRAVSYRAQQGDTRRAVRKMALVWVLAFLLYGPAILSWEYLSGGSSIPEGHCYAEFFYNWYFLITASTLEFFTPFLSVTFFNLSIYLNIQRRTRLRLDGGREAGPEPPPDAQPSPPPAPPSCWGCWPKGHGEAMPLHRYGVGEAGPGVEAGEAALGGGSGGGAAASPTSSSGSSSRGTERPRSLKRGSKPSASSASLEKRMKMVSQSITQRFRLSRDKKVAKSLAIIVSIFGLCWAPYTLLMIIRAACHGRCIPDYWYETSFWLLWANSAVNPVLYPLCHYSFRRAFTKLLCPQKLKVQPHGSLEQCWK

SMILES | inhibition at 1 µM
C[C@H]1CCCN1CCCN1C(=C(C#N)C#N)N(CCCN2CCC[C@@H]2C)c2ccccc21 [Compound 125, {1,3-Bis[3-((S)-2-methylpyrrolidin-1-yl)propyl]benzimidazolidin-2-ylidene}malononitrile] | ≥ 80%
CC1CCCN1CCCN1CCN(C2CCN(Cc3ccccc3)CC2)C1=C(C#N)C#N (stereo not shown) [Compound 127, {1-(1-Benzylpiperidin-4-yl)-3-[3-(2-methylpyrrolidin-1-yl)propyl]imidazolidin-2-ylidene}malononitrile] | ≥ 80%
CC(C)N1CCC(CN2CCN(CC3CCN(C(C)C)CC3)C2=C(C#N)C#N)CC1 [Compound 134, [1,3-Bis(1-isopropylpiperidin-4-ylmethyl)imidazolidin-2-ylidene]malononitrile] | ≥ 80%
N#CN=C1N(CCCN2CCCCC2)CCN1CCCN1CCCCC1 [Compound 139, 1,3-Bis(3-piperidinopropyl)imidazolidin-2-ylidene Cyanoamide Difumarate] | ≥ 80%
CC1CCCN1CCCN1CCN(CCCN2CCCC2C)C1=O (stereo not shown) [Compound 141, 1,3-Bis[3-(2-methylpyrrolidin-1-yl)propyl]imidazolidine-2-one] | ≥ 80%
CC1CCCN1CC1CCN(C(NCCN2CCCCC2)=C(C#N)C#N)CC1 (stereo not shown) [Compound 148, {[4-(2-Methylpyrrolidin-1-ylmethyl)piperidino](2-piperidinoethylamino)methylene}malononitrile] | ≥ 80%
C[C@@H]1CCCN1CCN(C)C(=C(C#N)C#N)N1CCC(CN2CCCCC2)CC1 [Compound 151, ({N-methyl-N-[2-((R)-2-methylpyrrolidin-1-yl)ethyl]amino}(4-piperidinomethylpiperidino)methylene)malononitrile] | ≥ 80%
C[C@H]1CCCN1CCN(C)C(=C(C#N)C#N)N1CCC(CN2CCCCC2)CC1 [Compound 153, ({N-methyl-N-[2-((S)-2-methylpyrrolidin-1-yl)ethyl]amino}(4-piperidinomethylpiperidino)methylene)malononitrile] | ≥ 80%
CC1CCCN1CC1CCN(C(=C(C#N)C#N)N(C)CCN2CCC[C@H]2C)CC1 (stereo partly drawn) [Compound 155, ({N-methyl-N-[2-((R)-2-methylpyrrolidin-1-yl)ethyl]amino}[4-(2-methylpyrrolidin-1-ylmethyl)piperidino]methylene)malononitrile] | ≥ 80%
CC1CCCN1CC1CCN(C(=C(C#N)C#N)N(C)CCN2CCC[C@@H]2C)CC1 (stereo partly drawn) [Compound 157, ({N-methyl-N-[2-((S)-2-methylpyrrolidin-1-yl)ethyl]amino}[4-(2-methylpyrrolidin-1-ylmethyl)piperidino]methylene)malononitrile] | ≥ 80%
N#CC(C#N)=C(NCCCN1CCC(F)(F)C1)N1CCC(N2CCCCC2)CC1 [Compound 168, {[3-(3,3-Difluoropyrrolidin-1-yl)propylamino](4-piperidinopiperidino)methylene}malononitrile] | ≥ 80%
CN(CCCN1CCC(F)(F)C1)C(=C(C#N)C#N)N1CCC(N2CCCCC2)CC1 [Compound 169, ({N-[3-(3,3-difluoropyrrolidin-1-yl)propyl]-N-methylamino}(4-piperidinopiperidino)methylene)malononitrile] | ≥ 80%
CC1CCCN1CCCNC(=C(C#N)C#N)N1CCC(N2CCCCC2)CC1 (stereo not shown) [Compound 170, {[3-(2-Methylpyrrolidin-1-yl)propylamino](4-piperidinopiperidino)methylene}malononitrile] | ≥ 80%
N#CC(C#N)=C(NCCCN1CCCCC1)N1CCC(CN2CCCCC2)CC1 [Compound 172, [(4-Piperidinomethylpiperidino)(3-piperidinopropylamino)methylene]malononitrile] | ≥ 80%
CC1CCCN1CCCNC(=C(C#N)C#N)N1CCC(CN2CCCCC2)CC1 (stereo not shown) [Compound 173, {[3-(2-Methylpyrrolidin-1-yl)propylamino](4-piperidinomethylpiperidino)methylene}malononitrile] | ≥ 80%
CC1CCCN1CCCNC(=C(C#N)C#N)N1CCC(CN2CCCC2C)CC1 (stereo not shown) [Compound 174, {[4-(2-Methylpyrrolidin-1-ylmethyl)piperidino][3-(2-methylpyrrolidin-1-yl)propylamino]methylene}malononitrile] | ≥ 80%
CC(C)N1CCC(NC(=C(C#N)C#N)N2CCC(CN3CCCCC3)CC2)CC1 [Compound 178, [(1-Isopropylpiperidin-4-ylamino)(4-piperidinomethylpiperidino)methylene]malononitrile] | ≥ 80%

Results, then the compound that gave them:

inhibition at 1 µM | SMILES
≥ 80% | CC1CC(C)CN(CCCN2CCN(CCCN3CCCCC3)C2=C(C#N)C#N)C1 (stereo not shown) [Compound 102, {1-[3-(3,5-Dimethylpiperidino)propyl]-3-(3-piperidinopropyl)imidazolidin-2-ylidene}malononitrile]
≥ 80% | CC1CC(C)CN(CCCN2CCN(CCCN3CCCCC3C)C2=C(C#N)C#N)C1 (stereo not shown) [Compound 104, {1-[3-(3,5-Dimethylpiperidino)propyl]-3-[3-(2-methylpiperidino)propyl]imidazolidin-2-ylidene}malononitrile]
≥ 80% | CC1CCCN(CCCN2CCN(CCCN3CC(C)CC(C)C3)C2=C(C#N)C#N)C1 (stereo not shown) [Compound 105, {1-[3-(3,5-Dimethylpiperidino)propyl]-3-[3-(3-methylpiperidino)propyl]imidazolidin-2-ylidene}malononitrile]
≥ 80% | CC1CCN(CCCN2CCN(CCCN3CC(C)CC(C)C3)C2=C(C#N)C#N)CC1 (stereo not shown) [Compound 106, {1-[3-(3,5-Dimethylpiperidino)propyl]-3-[3-(4-methylpiperidino)propyl]imidazolidin-2-ylidene}malononitrile]
≥ 80% | CC1CC(C)CN(CCCN2CCN(CCCN3CCC(O)C3)C2=C(C#N)C#N)C1 (stereo not shown) [Compound 107, {1-[3-(3,5-Dimethylpiperidino)propyl]-3-[3-(3-hydroxypyrrolidin-1-yl)propyl]imidazolidin-2-ylidene}malononitrile]
≥ 80% | CC1CC(C)CN(CCCN2CCN(CCCN3C(C)CCCC3C)C2=C(C#N)C#N)C1 (stereo not shown) [Compound 108, {1-[3-(2,6-Dimethylpiperidino)propyl]-3-[3-(3,5-dimethylpiperidino)propyl]imidazolidin-2-ylidene}malononitrile]
≥ 80% | CC1CC(C)CN(CCCN2CCN(CCCN3CC(C)CC(C)C3)C2=C(C#N)C#N)C1 (stereo not shown) [Compound 109, {1,3-Bis[3-(3,5-dimethylpiperidino)propyl]imidazolidin-2-ylidene}malononitrile]
≥ 80% | CC1CC(C)CN(CCCN2CCN(CCCN3CCCC3C)C2=C(C#N)C#N)C1 (stereo not shown) [Compound 110, {1-[3-(3,5-Dimethylpiperidino)propyl]-3-[3-(2-methylpyrrolidin-1-yl)propyl]imidazolidin-2-ylidene}malononitrile]
≥ 80% | CC1CCCN(CCCN2CCN(CCCN3CCCC3C)C2=C(C#N)C#N)C1 (stereo not shown) [Compound 112, {1-[3-(3-Methylpiperidino)propyl]-3-[3-(2-methylpyrrolidin-1-yl)propyl]imidazolidin-2-ylidene}malononitrile]
≥ 80% | CC1CCCN1CCCN1CCN(CCCN2CCC(O)C2)C1=C(C#N)C#N (stereo not shown) [Compound 114, {1-[3-(3-Hydroxypyrrolidin-1-yl)propyl]-3-[3-(2-methylpyrrolidin-1-yl)propyl]imidazolidin-2-ylidene}malononitrile]
≥ 80% | C[C@@H]1CCCN1CCCN1CCN(CCCN2CCC[C@H]2C)C1=C(C#N)C#N [Compound 116, {1,3-Bis[3-((R)-2-methylpyrrolidin-1-yl)propyl]imidazolidin-2-ylidene}malononitrile Difumarate]
≥ 80% | CC1CCCN1CCCN1CCCN(CCCN2CCCC2C)C1=C(C#N)C#N (stereo not shown) [Compound 123, {1,3-Bis[3-(2-methylpyrrolidin-1-yl)propyl]hexahydropyrimidin-2-ylidene}malononitrile]
≥ 80% | CC(C)N1CCC(CN2CCN(CCCN3CCCCC3)C2=C(C#N)C#N)CC1 [Compound 133, {1-[(1-Isopropylpiperidin-4-yl)methyl]-3-(3-piperidinopropyl)imidazolidin-2-ylidene}malononitrile]
≥ 80% | CC1CCCN1CCCN1CCN(CCCN2CCCC2C)C1=NC#N (stereo not shown) [Compound 140, 1,3-Bis[3-(2-methylpyrrolidin-1-yl)propyl]imidazolidin-2-ylidenecyanoamide Difumarate]
